Data on 4 compounds can be found in ChEMBL document CHEMBL6120937, “PROTAC technology: From drug development to probe technology for target deconvolution” (Eur J Med Chem, 2024).

pIC50: −log10 of the molar value.

The subject of one test is Jurkat. Briefly: Antiproliferative activity against human Jurkat cells assessed as reduction in cell viability incubated for 72 hrs by CCK-8 assay. The format is functional, cell-based.
Another test has as its system HCT-116. Briefly: Cytotoxicity against human HCT-116 cells assessed as reduction in cell growth incubated for 72 hrs by CCK-8 assay. It is filed as functional, cell-based. The following applies: HCT-116, 72 h.
The next test relates to RAW264.7. Briefly: Anti-inflammatory activity in mouse RAW264.7 cells assessed as inhibition of LPS-induced NO production incubated for 24 hrs by Griess reagent based analysis. The format is functional, cell-based. The following applies: RAW264.7, 24 h.
Test [1] can be described thus: Inhibition of hedgehog in […] cells. It is filed as cell-based.

Consider `CC1=C(O)C(=O)C=C2C1=CC=C1[C@@]2(C)CC[C@@]2(C)[C@@H]3C[C@](C)(C(=O)NCCOCCNc4cccc5c4C(=O)N(C4CCC(=O)NC4=O)C5=O)CC[C@]3(C)CC[C@@]12C` (some centres undefined), for which, in the test with Jurkat, the negative-log IC50 (pIC50) was 6.60.
With `CN1c2ccc(F)cc2C(=O)N2CCc3c([nH]c4ccc(OCCCNC(=O)CCCCCC#Cc5cccc6c5CN(C5CCC(=O)NC5=O)C6=O)cc34)C21` (centres undefined), in the test on HCT-116, the pIC50 is 7.70.
Consider `C=C1CCC2C(/C=C(\C)C(=O)[C@@]3(O)C[C@H](C)[C@H](O)C3[C@H]1OCc1cn(CCOCCOCCOCCNc3cccc4c3C(=O)N(C3CCC(=O)NC3=O)C4=O)nn1)C2(C)C` (some centres undefined), for which the pIC50 in the test with RAW264.7 was 5.08.
`COCCOC(=O)C1=C(c2cccc(OCc3cn(CCCCCCOc4cccc5c4C(=O)N(C4CCC(=O)NC4=O)C5=O)nn3)c2)C2=C(CC(c3ccccc3OC)CC2=O)NC1C` (centres undefined) had a pIC50 in test [1] of 5.21.
